Laboratory results from patent US20160160268A1, “AMDINOCILLIN FOR RAPID DETERMINATION OF SUSCEPTIBILITY TO BETA-LACTAM ANTIBIOTICS” (THE REGENTS OF THE UNIVERSITY OF CALIFORNIA, priority 2013, published 2016).

How the values were obtained:
Assay type in all cases: cell-based
[1] = system: lawn of E. coli (strains EC135, EC96, EC103, NDM-1); test: Kirby-Bauer disc diffusion antibiotic-susceptibility test
Excerpt: FIGS. 15A-15F present digital photomicrographs showing results of Kirby-Bauer disc diffusion antibiotic-susceptibility tests. 6 mm diameter antibiotic discs were placed on agar plates seeded with a lawn of E. coli that were Ampicillin susceptible (strain EC135), Ampicillin resistant (strain EC96), Cefazolin susceptible (strain EC103), Cefazolin resistant (strain EC96), Imipenem susceptible (strain EC103) or Imipenem resistant (strain NDM-1). In each panel the antibiotic disc is on the left and the amdinocillin disc is on the right. Images were obtained after 20 hours of incubation at 37° C.

[2] = system: E. coli (strain EC103) cells; test: E. coli cell length (filamentation) measurement
Protocol: The lengths of ampicillin-susceptible E. coli (strain EC103) cells were measured after treatment for 30 minutes with no antibiotics, ampicillin, or ampicillin plus amdinocillin. Digital photomicrographs of representative cells treated with no antibiotics (16A), ampicillin (16B), and ampicillin plus amdinocillin (16C) are shown.

[3] = system: antibiotic susceptible and resistant E. coli strains; test: Mature rRNA and pre-rRNA response to beta-lactam antibiotics with or without amdinocillin; conditions: for differentiation of antibiotic-susceptible from antibiotic-resistant bacteria on addition of amdinocillin to the assay: with amdinocillin
Protocol: As a result of blocking filamentation, levels of mature rRNA and pre-rRNA decrease within 30-45 min when amdinocillin is combined with beta lactam antibiotics. […] For example, at a concentration of 32 μg/ml, cefazolin causes a drop of pre-rRNA within 30 min whether or not amdinocillin is present.
Ampicillin-susceptible E. coli (strain EC135) was treated with ampicillin (16 μg/ml) alone, amdinocillin (1 μg/ml) alone, ampicillin plus amdinocillin, or neither. […] Effects on pre-rRNA were more pronounced than those on mature rRNA.
Ceftriaxone-susceptible E. coli (strain EC103) was treated with ceftriaxone ([…]) alone, amdinocillin ([…]) alone, ceftriaxone plus amdinocillin, or neither. Ceftriaxone-mediated effects on mature rRNA and pre-rRNA occurred 60 min faster with amdinocillin than without amdinocillin.
Cefazolin-susceptible E. coli (strain EC103) was treated with amdinocillin (1 μg/ml) plus cefazolin at concentrations ranging from 0-32 μg/ml.
Graphs illustrating the effects of beta-lactam antibiotics plus amdinocillin on antibiotic susceptible and resistant bacteria can be found in FIGS. 14A-14D. Antibiotic susceptible and resistant bacteria were treated with amdinocillin (1 μg/ml) plus various beta lactam antibiotics including 16 μg/ml cefazolin, 4 μg/ml ceftriaxone, 32 μg/ml piperacillin plus 4 μg/ml tazobactam, and 2 μg/ml imipenem. Differential effects on pre-rRNA of susceptible from resistant bacteria were evident within 30-90 min.

[4] = system: susceptible strain of E. coli; test: Response of pre-rRNA to cefazolin in log phase culture; conditions: log phase of growth
[5] = system: E. coli clinical urine isolate EC103; test: Electrochemical sensor assay of mature rRNA and pre-rRNA after adding an antibiotic to a growing culture; conditions: for effect on mature rRNA level: 25 μg/ml Chloramphenicol or 16 μg/ml Gentamicin added at 150 or 210 minutes; for effect on pre-rRNA level: 25 μg/ml Rifampicin, 25 μg/ml Chloramphenicol, 4 μg/ml Ciprofloxacin or 16 μg/ml Gentamicin added at 150 or 210 minutes
Protocol: Overnight cultures of EC103 were prepared by adding 5 μl of EC103 glycerol stock to 5 ml of MH broth with ampicillin and incubated at 37° C. overnight with shaking. […] Every 30 min, including at 0 min and the overnight culture itself, a 1 ml sample was taken for OD600 measurement and 10-fold serial dilutions (100 μl into 900 μl) were performed in room temperature MH broth. Cell density was determined by plating serial dilutions in triplicate. At each time point, culture samples were transferred to an ice water bath or centrifuged immediately at 4° C. for 3 min at 14,000 rpm.
Electrochemical detection.
Each sensor of the array consisted of a 2.5 mm diameter central working electrode, surrounded by an Au counter electrode and an Au pseudo-reference electrode. […] Washing steps were carried out after each application of reagents by applying a stream of deionized H2O to the sensor surface for approximately 2-3 sec followed by 5 sec of drying under a stream of nitrogen. Prior to addition of the first reagent, the bare gold chips were dried as described above. To functionalize the working sensor surface, a fresh mixture of 0.05 μM thiolated capture probe and 300 μM 1,6-hexanedithiol (96%, Sigma, St. Louis, Mo.) was prepared in 10 mM Tris-HCl, 1 mM EDTA and 0.3 M NaCl (pH 8.0) and allowed to stand at room temperature for 10 min. Aliquots of 6 μl of this mixture were cast over each Au working electrode in the 16-sensor array and incubated overnight at 4° C. in a humidified chamber.

Compound: CC1(C)S[C@@H]2[C@H](/N=C/N3CCCCCC3)C(=O)N2[C@H]1C(=O)O [amdinocillin]
- synergy between amdinocillin and the antibiotics tested ([1]; ampicillin, cefazolin, imipenem discs, 20 hours at 37° C.): Synergy was not observed
- effect of amdinocillin on susceptibility of bacteria to beta-lactam antibiotics ([1]; disc diffusion): did not increase the susceptibility
- effect on filamentation caused by beta-lactam antibiotics [2]: prevents filamentation
- effect on ampicillin-induced increase in cell length ([2]; ampicillin plus amdinocillin, 30 minutes, strain EC103): partially blocked
- effect of amdinocillin alone on rRNA or pre-rRNA levels ([3]; amdinocillin alone): no effect
- effect of amdinocillin on recognition of ampicillin susceptibility ([3]; ampicillin 16 μg/ml, amdinocillin 1 μg/ml, strain EC135): enabled early recognition of ampicillin susceptibility
- effect of amdinocillin on recognition of cefazolin susceptibility ([3]; cefazolin 4 μg/ml, amdinocillin 1 μg/ml, strain EC103): enabled early recognition of cefazolin-susceptibility
- effect of amdinocillin on pre-RNA levels ([3]; cefazolin 32 μg/ml, amdinocillin 1 μg/ml, strain EC103): no effect

Compound: CC1(C)S[C@@H]2[C@H](NC(=O)[C@H](N)c3ccccc3)C(=O)N2[C@H]1C(=O)O [ampicillin]
- average increase in length of E. coli cells ([2]; treatment for 30 minutes, strain EC103): 4 fold
- dependence of the amdinocillin effect on the antibiotic concentration [3]: independent of the antibiotic concentration
- differentiation of antibiotic-susceptible from antibiotic-resistant bacteria on addition of amdinocillin to the assay [3]: enables rapid differentiation

Compound: Cc1nnc(SCC2=C(C(=O)O)N3C(=O)[C@@H](NC(=O)Cn4cnnn4)[C@H]3SC2)s1 [cefazolin]
- drop in amount of pre-rRNA compared to culture without antibiotic [4]: one-log drop
- time within which the pre-rRNA drop occurred [4]: ≤ 30 min
- dependence of the amdinocillin effect on the antibiotic concentration [3]: dependent on the antibiotic concentration
- concentration dependence of fall in pre-rRNA levels ([3]; cefazolin 0-32 μg/ml plus amdinocillin 1 μg/ml, strain EC103): fell more quickly at higher cefazolin concentrations
- effect on pre-rRNA ([3]; cefazolin 4 μg/ml): does not cause a drop of pre-rRNA unless amdinocillin is present
- time within which pre-rRNA drops ([3]; cefazolin 32 μg/ml, whether or not amdinocillin is present): ≤ 30 min
- differentiation of antibiotic-susceptible from antibiotic-resistant bacteria on addition of amdinocillin to the assay [3]: enables rapid differentiation

Compound: CO/N=C(\C(=O)N[C@@H]1C(=O)N2C(C(=O)O)=C(COC(C)=O)CS[C@H]12)c1csc(N)n1 [cefotaxime]
- differentiation of antibiotic-susceptible from antibiotic-resistant bacteria on addition of amdinocillin to the assay [3]: enables rapid differentiation

Compound: CO/N=C(\C(=O)N[C@@H]1C(=O)N2C(C(=O)O)=C(CSc3nc(=O)c(=O)[nH]n3C)CS[C@H]12)c1csc(N)n1 [ceftriaxone]
- how much faster effects on mature rRNA and pre-rRNA occurred with amdinocillin than without ([3]; ceftriaxone (8 pg/ml), amdinocillin 1 μg/ml, strain EC103): 60 min

Compound: O=C(N[C@H](CO)[C@H](O)c1ccc([N+](=O)[O-])cc1)C(Cl)Cl [chloramphenicol]
- effect on mature rRNA level [5]: decrease
- effect on pre-rRNA level [5]: selective increase

Compound: CCN1CCN(C(=O)N[C@@H](C(=O)N[C@@H]2C(=O)N3[C@@H]2SC(C)(C)[C@@H]3C(=O)O)c2ccccc2)C(=O)C1=O [piperacillin]
- differentiation of antibiotic-susceptible from antibiotic-resistant bacteria on addition of amdinocillin to the assay [3]: enables rapid differentiation

Compound: gentamicin
- effect on mature rRNA level [5]: decrease
- effect on pre-rRNA level [5]: without affecting
